This note sets out measurements from PubChem BioAssay AID1963870 (Molecular Pharmacology Branch, DTP, NCI, 2024).

A value given as a limit tells only on which side of the number the result lay.

The assay concerns 292921-168-R-J2-PDC KRAS tumor spheroid viability. The assay can be described thus: Anticancer human tumor 292921-168-R-J2-PDC patient-derived pancreatic carcinoma cell line growth inhibition [KRAS2]. The following applies: spheroids with HUVEC and MSC; for viability, T/C: stronger effect = lower value. The text has this:
Multicellular complex tumor spheroid response to RAS pathway inhibitors in combination with a targeted agents in patient-derived cell lines with oncogenic KRAS variants from multiple cancer types
A high-throughput screen of multi-cell type tumor spheroids was designed to identify active combinations of targeted small molecules and KRAS pathway inhibitors. Complex spheroids include a stromal component modeled by human endothelial cells (HUVEC) and fibroblasts modeled by human mesenchymal stem cells (MSCs). The concentration ranges selected for each drug and investigational agent were based upon clinically achievable concentrations if the clinical Cmax of the agent was known.
Compounds. The drugs and investigational agents: BI-3406 (NSC825286), BAY-293 (NSC824723), batoprotafib (TNO155; NSC825523), sotorasib (AMG 510; NSC818433), MRTX1257 (NSC819558), elimusertib (BAY 1895344; NSC800525), molibresib (GSK525762; NSC774829), temuterkib (LY3214996; NSC803410), venetoclax (NSC766270), alisertib (NSC759677), olaparib (NSC753686), talazoparib (NSC767125), erdafitinib (NSC781556), ipatasertib (NSC767898), cabozantinib (NSC761068), nintedanib (NSC756659), abemaciclib (NSC768073), docetaxel (NSC628503), trametinib (NSC758246), and sapanisertib (NSC764658) were obtained from the National Cancer Institute (NCI) Developmental Therapeutics Program Chemical Repository. The FDA-approved anticancer drug set is available from the Developmental Therapeutics Program. […] The stock solutions were prepared in dimethyl sulfoxide (DMSO, Sigma-Aldrich, St. Louis, MO, cat. D2650) at 800-fold the tested concentration and stored at -70 degrees C prior to their use. All drugs and investigational agents were tested over a range starting from a high concentration at or near the clinical Cmax and decreasing in half-log increments. If the clinical Cmax for an agent had not been determined, the highest concentration tested was 10 microM.
Cell Culture. All cells were maintained in an incubator at 37 degrees C and 5% CO2 with 95% humidity. The PDC lines were cultured according to standard operating procedures established by the NCI PDMR (https://pdmr.cancer.gov/sops/default.htm). Briefly, all PDCs were thawed and cultured in Matrigel-coated flasks prepared with a working solution of 1X Ham's F-12 nutrient mix, without supplementation (Invitrogen, Waltham, MA, cat. 11765054), 100 U/mL penicillin-streptomycin (Invitrogen, cat. 15140122), and 2.5% Matrigel (Corning Inc., Corning, NY, cat. 354248) for the first three passages. All PDCs were cultured in complete DMEM/F-12 media containing advanced DMEM/F-12 (Invitrogen, cat. 12634028), 4.9% defined fetal bovine serum, heat inactivated (HyClone Laboratories Inc., Logan, UT, cat. SH30070.03HI), 389 ng/mL hydrocortisone (Sigma-Aldrich, cat. H4001), 9.7 ng/mL human EGF recombinant protein (Invitrogen, cat. PHG0313), 23.4 microg/mL adenine (Sigma-Aldrich, cat. A2786), 97.3 U/mL penicillin-streptomycin (Invitrogen, cat. 15140122), 1.9 mM L-glutamine (Invitrogen, cat. 25030081), and 9.7 microM Y-27632 dihydrochloride (Tocris Bioscience, Bristol, United Kingdom, cat. 1254). The PDCs were cultured in complete DMEM/F12 media without 9.7 microM Y-27632 dihydrochloride for at least two passages prior to the screen. The established cell line HOP-62 was cultured in RPMI 1640 medium, HEPES (Invitrogen, cat. 22400105) with 10% defined fetal bovine serum (HyClone Laboratories Inc., cat. SH30070.03) and 2 mM L-glutamine (Invitrogen, cat. 25030081). The pooled donor HUVEC were cultured in endothelial cell growth medium 2 (PromoCell, Heidelberg, Germany, cat. C-22011) and the hMSC were cultured in mesenchymal stem cell growth medium 2 (PromoCell, cat. C-28009). For all experiments, HUVEC and hMSC were used at passages </=5, while the malignant cell lines were used at passages </=15. […]

The mark [1] stands for this setting: curve of first compound, second compound 0.1 µM.
The mark [2] stands for this setting: curve of first compound, second compound 0.316 µM.
The mark [3] stands for this setting: curve of first compound, second compound 1 µM.
Where [4] appears, read: curve of first compound, second compound 3.16 µM.
[5] abbreviates: curve of first compound, second compound 10 µM.
Setting [6] is: second compound 0.1 µM, first compound 0.0316 µM.
The mark [7] stands for this setting: second compound 0.1 µM, first compound 0.1 µM.
[8] abbreviates: second compound 0.1 µM, first compound 0.316 µM.
[9] abbreviates: second compound 0.1 µM, first compound 1 µM.
Setting [10] is: second compound 0.1 µM, first compound 3.16 µM.
The mark [11] stands for this setting: second compound 0.316 µM, first compound 0.0316 µM.
Where [12] appears, read: second compound 0.316 µM, first compound 0.1 µM.
Where [13] appears, read: second compound 0.316 µM, first compound 0.316 µM.
Where [14] appears, read: second compound 0.316 µM, first compound 1 µM.
Where [15] appears, read: second compound 0.316 µM, first compound 3.16 µM.
The mark [16] stands for this setting: second compound 1 µM, first compound 0.0316 µM.
[17] abbreviates: second compound 1 µM, first compound 0.1 µM.
Setting [18] is: second compound 1 µM, first compound 0.316 µM.
Setting [19] is: second compound 1 µM, first compound 1 µM.
[20] abbreviates: second compound 1 µM, first compound 3.16 µM.
The mark [21] stands for this setting: second compound 3.16 µM, first compound 0.0316 µM.
Setting [22] is: second compound 3.16 µM, first compound 0.1 µM.
[23] abbreviates: second compound 3.16 µM, first compound 0.316 µM.
Setting [24] is: second compound 3.16 µM, first compound 1 µM.
The mark [25] stands for this setting: second compound 3.16 µM, first compound 3.16 µM.
Setting [26] is: second compound 10 µM, first compound 0.0316 µM.
[27] abbreviates: second compound 10 µM, first compound 0.1 µM.
Setting [28] is: second compound 10 µM, first compound 0.316 µM.
[29] abbreviates: second compound 10 µM, first compound 1 µM.
[30] abbreviates: second compound 10 µM, first compound 3.16 µM.
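Also: drug exposure lasted seven days after spheroids formed for three days.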
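For viability, T/C in this document: percent of DMSO vehicle control viability which is 100%.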

As for `COc1cc(Nc2ncc3c(n2)-c2ccc(Cl)cc2C(c2c(F)cccc2OC)=NC3)ccc1C(=O)O`, the viability, T/C by setting is: (compound 0.0316 µM) 30.3% [middle of 5 runs]; (compound 0.1 µM) 28% [middle of 5 runs]; (compound 0.316 µM) 30.6% [middle of 5 runs]; (compound 1 µM) 28.6% [middle of 5 runs]; (compound 3.16 µM) 23.7% [middle of 5 runs]; (compound 10 µM) 17.8% [middle of 5 runs]. Further, the half-inhibitory concentration (IC50) (curve of compound) is less than 31.6 nM.

Regarding `CC1COCCN1c1cc(-c2ccnn2C)c2ccnc(-c3ccn[nH]3)c2n1` (stereo unspecified) + CNCc1ccccc1-c1csc(C(C)Nc2nc(C)nc3cc(OC)c(OC)cc23)c1, the IC50 was less than 10 nM under setting [1]; less than 10 nM under setting [2]; less than 10 nM under setting [3]; less than 10 nM under setting [4]; less than 10 nM under setting [5]. Also, the viability, T/C was 39.3% (second compound 0.1 µM, first compound 0.01 µM); 21% under setting [6]; 15.5% under setting [7]; 13.1% under setting [8]; 15.2% under setting [9]; 16.1% under setting [10]. Also, the viability, T/C (second compound 0.316 µM, first compound 0.01 µM) is 34.4%; the viability, T/C under setting [11] is 19.7%; the viability, T/C under setting [12] was 12.7%; the viability, T/C under setting [13] is 12.9%; the viability, T/C under setting [14] was 14.1%; the viability, T/C under setting [15] was 14.8%. The viability, T/C is, setting by setting: (second compound 1 µM, first compound 0.01 µM) 28.9%; under setting [16], 16.3%; under setting [17], 11.1%; under setting [18], 11.3%; under setting [19], 13.5%; under setting [20], 12.8%. The viability, T/C by setting is: (second compound 3.16 µM, first compound 0.01 µM) 0.07%; under setting [21], 0.07%; under setting [22], 0.05%; under setting [23], 0.08%; under setting [24], 0.1%; under setting [25], 0.16%. In addition, the viability, T/C is 0.11% (second compound 10 µM, first compound 0.01 µM); 0.09% under setting [26]; 0.27% under setting [27]; 0.08% under setting [28]; 0.09% under setting [29]; 0.15% under setting [30].

For `CNCc1ccccc1-c1csc(C(C)Nc2nc(C)nc3cc(OC)c(OC)cc23)c1` (stereo unspecified), the viability, T/C was 88.7% [middle of 16 runs] (compound 0.316 µM) and 0.15% [middle of 14 runs] (compound 10 µM). In addition, the concentration for half-maximal inhibition (IC50) was 1.28 µM [middle of 5 runs] (compound alone, run of 08/26/2021) and 1.34 µM [middle of 5 runs] (compound alone, run of 09/02/2021).

On to `COc1cc2nccc(Oc3ccc(NC(=O)C4(C(=O)Nc5ccc(F)cc5)CC4)cc3)c2cc1OC` + CNCc1ccccc1-c1csc(C(C)Nc2nc(C)nc3cc(OC)c(OC)cc23)c1, for which the IC50 was 1270 nM under setting [1]; 1050 nM under setting [2]; 401 nM under setting [3]; less than 31.6 nM under setting [4]; less than 31.6 nM under setting [5]. Also, the viability, T/C is 89.2% under setting [6]; 94.5% under setting [7]; 82.5% under setting [8]; 57.1% under setting [9]; 25.1% under setting [10]; 18.1% (second compound 0.1 µM, first compound 10 µM). Moreover, the viability, T/C is, setting by setting: under setting [11], 89.4%; under setting [12], 90.8%; under setting [13], 73.4%; under setting [14], 55.3%; under setting [15], 19.8%; (second compound 0.316 µM, first compound 10 µM) 17%. The viability, T/C was 69.1% under setting [16]; 65.5% under setting [17]; 50.1% under setting [18]; 40.2% under setting [19]; 15.1% under setting [20]; 3.12% (second compound 1 µM, first compound 10 µM). For the same compound, the viability, T/C was 0.1% under setting [21]; 0.09% under setting [22]; 0.13% under setting [23]; 0.06% under setting [24]; 0.05% under setting [25]; 0.1% (second compound 3.16 µM, first compound 10 µM). The viability, T/C was 0.08% under setting [26]; 0.13% under setting [27]; 0.21% under setting [28]; 0.08% under setting [29]; 0.42% under setting [30]; 0.25% (second compound 10 µM, first compound 10 µM).

The viability, T/C is the ratio of treated to control. One may read the IC50 as the concentration that gives 50% inhibition.
